# Test results: EPA's ToxRefDB 2
# How the values were obtained:
# rat [1] = settings: Combined chronic toxicity/carcinogenicity, sprague dawley, Oral, Feed, dose end: 104 week, group: systemic
# mouse [2] = settings: Subchronic oral toxicity in rodents, cd1, Feed, dose end: 90 day, group: systemic, systemic / in life observation / body weight / body weight gain + systemic / in life observation / food consumption / food consumption + …
# rat [3] = settings: Multigenerational reproductive toxicity study, sprague dawley, Oral, Feed, dose end: 2 generation
# rat [4] = settings: Prenatal developmental toxicity study, sprague dawley, Oral, Gavage/Intubation, dose end: 15 GD
# dog [5] = settings: Chronic toxicity, beagle, Oral, Gavage/Intubation, dose end: 12 month, group: systemic
# rabbit = settings: Prenatal developmental toxicity study, new zealand white, Oral, Gavage/Intubation, dose end: 19 GD
# mouse [6] = settings: Carcinogenicity, cd1, Oral, Feed, dose end: 80 week, group: systemic
# rat [7] = settings: Subchronic oral toxicity in rodents, sprague dawley, Feed, dose end: 90 day, group: systemic
# dog [8] = settings: Subchronic oral toxicity in nonrodent, beagle, Gavage/Intubation, dose end: 90 day, group: systemic, systemic / in life observation / clinical signs / defecation (diarrhea) + systemic / in life observation / clinical signs / motor activity…
# rat [9] = settings: Developmental neurotoxicity study; sprague dawley; Oral; Gavage/Intubation; dose end: 140 PND; group: cannot be grouped; systemic / in life observation / body weight / body weight + developmental / offspring survival late / [other] / [other] + systemic / in …
# mouse [10] = settings: Carcinogenicity; b6c3f1; Oral; Feed; dose end: 78 week; group: systemic; systemic / pathology microscopic / liver / carcinoma + systemic / in life observation / body weight / body weight + systemic / in life …
# rat [11] = settings: Carcinogenicity, other, Oral, Feed, dose end: 78 week, group: systemic
# [12] = systemic / pathology microscopic / thyroid gland / adenoma + systemic / clinical chemistry / cholesterol / cholesterol + systemic / clinical…
# [13] = group: offspring, systemic / in life observation / body weight / offspring (pup) weight + systemic / in life observation / body weight / offspring (pup) …
# [14] = group: parental, systemic / in life observation / body weight / body weight
# [15] = group: developmental, systemic / in life observation / body weight / fetal weight + systemic / in life observation / body weight / litter weight
# [16] = group: maternal, systemic / in life observation / body weight / body weight + systemic / in life observation / body weight / body weight gain + systemic / in…
# [17] = systemic / hematology / blood clotting / blood clotting - thromboplastin time + systemic / in life observation / body weight / body weight …
# [18] = group: developmental, developmental / developmental malformation / bone / full supernumerary + developmental / developmental malformation / bone / incomplete …
# [19] = systemic / pathology gross / urinary bladder / distended
# [20] = systemic / pathology gross / urinary bladder / distended + systemic / hematology / lymphocyte / lymphocyte + systemic / hematology / …
# [21] = systemic / in life observation / body weight / body weight + systemic / in life observation / body weight / body weight gain + systemic / in…
# [22] = systemic / in life observation / body weight / body weight gain + systemic / organ weight / liver / relative to body weight
# [23] = systemic / pathology microscopic / liver / necrosis
# [24] = systemic / pathology microscopic / liver / necrosis + systemic / pathology microscopic / thyroid gland / adenoma + systemic / in life …
smiles,measurement,setting,value
Cc1cc(C)nc(Nc2ccccc2)n1 [Pyrimethanil],LEL,rat [1]; systemic / clinical chemistry / gamma glutamyl transferase (ggt) / gamma glutamyl transferase (ggt) + systemic / organ weight / liver / …,17 mg/kg/day
same,LOAEL,rat [1]; [12],221 mg/kg/day
same,NEL,rat [1]; [12],1.3 mg/kg/day
same,NOAEL,rat [1]; [12],17 mg/kg/day
same,LEL,mouse [2],1860 mg/kg/day
same,LOAEL,mouse [2],1860 mg/kg/day
same,NEL,mouse [2],139 mg/kg/day
same,NOAEL,mouse [2],139 mg/kg/day
same,LOAEL,"rat [3]; group: offspring, systemic / in life observation / body weight / offspring (pup) weight",294 mg/kg/day
same,LEL,rat [3]; [13],294 mg/kg/day
same,NEL,rat [3]; [13],23.1 mg/kg/day
same,NOAEL,rat [3]; [13],23.1 mg/kg/day
same,LEL,rat [3]; [14],1.9 mg/kg/day
same,NEL,rat [3]; [14],< 1.9 mg/kg/day
same,LOAEL,"rat [3]; group: parental, systemic / in life observation / body weight / body weight + systemic / in life observation / body weight / body weight gain",294 mg/kg/day
same,NOAEL,"rat [3]; group: parental, systemic / in life observation / body weight / body weight + systemic / in life observation / body weight / body weight gain + systemic / in…",23.1 mg/kg/day
same,LEL,rat [4]; [15],1000 mg/kg/day
same,LOAEL,rat [4]; [15],1000 mg/kg/day
same,NEL,rat [4]; [15],85 mg/kg/day
same,NOAEL,rat [4]; [15],85 mg/kg/day
same,LOAEL,"rat [4]; group: maternal, systemic / in life observation / body weight / body weight + systemic / in life observation / body weight / body weight gain",1000 mg/kg/day
same,LEL,rat [4]; [16],1000 mg/kg/day
same,NEL,rat [4]; [16],85 mg/kg/day
same,NOAEL,rat [4]; [16],85 mg/kg/day
same,NEL,dog [5]; systemic / hematology / blood clotting / blood clotting - thromboplastin time + systemic / hematology / neutrophils / neutrophils + systemic…,2 mg/kg/day
same,LOAEL,dog [5]; [17],250 mg/kg/day
same,NOAEL,dog [5]; [17],30 mg/kg/day
same,LEL,dog [5]; systemic / in life observation / clinical signs / vomitting,30 mg/kg/day
same,LEL,rabbit; [18],300 mg/kg/day
same,LOAEL,rabbit; [18],300 mg/kg/day
same,NEL,rabbit; [18],45 mg/kg/day
same,NOAEL,rabbit; [18],45 mg/kg/day
same,LOAEL,rabbit; [16],300 mg/kg/day
same,NEL,rabbit; [16],7 mg/kg/day
same,NOAEL,rabbit; [16],45 mg/kg/day
same,LEL,"rabbit; group: maternal, systemic / in life observation / clinical signs / defecation",45 mg/kg/day
same,LEL,mouse [6]; [19],2 mg/kg/day
same,NEL,mouse [6]; [19],< 2 mg/kg/day
same,LOAEL,mouse [6]; [20],> 211 mg/kg/day
same,NOAEL,mouse [6]; [20],≥ 211 mg/kg/day
same,LOAEL,rat [7]; [21],529 mg/kg/day
same,NOAEL,rat [7]; [21],54.5 mg/kg/day
same,LEL,rat [7]; [22],6.8 mg/kg/day
same,NEL,rat [7]; [22],< 6.8 mg/kg/day
same,LEL,dog [8],800 mg/kg/day
same,LOAEL,dog [8],800 mg/kg/day
same,NEL,dog [8],80 mg/kg/day
same,NOAEL,dog [8],80 mg/kg/day
O=C1CCC(N2C(=O)c3ccccc3C2=O)C(=O)N1 (stereo not given) [Thalidomide],LEL,rat [9],100 mg/kg/day
same,LOAEL,rat [9],> 100 mg/kg/day
same,NEL,rat [9],< 100 mg/kg/day
same,NOAEL,rat [9],≥ 100 mg/kg/day
"ClC(Cl)=C(c1ccc(Cl)cc1)c1ccc(Cl)cc1 [p,p'-DDE]",LEL,mouse [10],22.2 mg/kg/day
same,LOAEL,mouse [10],> 39.1 mg/kg/day
same,NEL,mouse [10],< 22.2 mg/kg/day
same,NOAEL,mouse [10],≥ 39.1 mg/kg/day
same,LOAEL,rat [11]; [23],12.1 mg/kg/day
same,NOAEL,rat [11]; [23],< 12.1 mg/kg/day
same,LEL,rat [11]; [24],12.1 mg/kg/day
same,NEL,rat [11]; [24],< 12.1 mg/kg/day
